According to PMC5442318, “Hundreds of dual-stage antimalarial molecules discovered by a functional gametocyte screen” (Nature Communications, 2017):
Like-named read-outs stand apart in the source and are kept apart here.

Assays:
[1] = test system: P. falciparum stage V female gametocytes; assay: P. falciparum female gametocyte activation assay (Pf FGAA), 24 h or 48 h preincubation, Pfs25 expression readout; assay type: cell-based, Plasmodium falciparum NF54; details: for Pf FGAA classification: SLOW / FAST / GAMETE from activity at 48h, 24h, 0h incubation
Method in brief: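 Purified stage V gametocytes from P. falciparum NF54 gametocyte cultures were exposed to compounds for 24 h or 48 h at 37 °C under 3% O2/5% CO2, then activated by temperature drop plus xanthurenic acid. Activated females were stained with Cy3-anti-Pfs25 (0.5 μg ml^−1) for 24 h at 26 °C and counted by high-content imaging; pIC50 by nonlinear regression.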

[2] = test system: P. falciparum female gametes; assay: Pf FGAA with compounds added 30 min after triggering gametocyte activation (gamete-targeting); assay type: cell-based, Plasmodium falciparum NF54; details: 0h incubation time
[3] = test system: P. falciparum stages IV–V gametocytes; assay: Gametocytocidal ATP-depletion assay (gametocyte ATP bioluminescence); assay type: cell-based, Plasmodium falciparum; details: for inhibition at 2 µM: Plasmodium falciparum, mean
Method in brief: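 Purified stage IV–V gametocytes (12,500/well) incubated with compound for 48 h at 37 °C under 3% O2/5% CO2. ATP measured by BacTiter-Glo luminescence as a viability surrogate; hits tested at 2 μM single concentration.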

[4] = test system: HepG2 cells; assay: HepG2 cytotoxicity assay; assay type: cell-based; details: for Selectivity ratio: HepG2 TOX50 versus Pf FGAA IC50
Method in brief: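 Steps: equilibrate plates and detection reagent at room temperature (30 min); dispense CellTiter-Glo; allow 10 min at room temperature; record luminescence.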

[5] = test system: P. falciparum asexual blood stages; details: ref 1 (Gamo, F. J. et al., Nature 465, 305-310, 2010), cited from earlier work; for IC50: TCAMS asexual blood stage data, read-out: Pf Asexual blood stages XC50; for Pf Asexual stages XC50: TCAMS data
[6] = Plasmodium falciparum, 24h incubation time, read-out: Pf FGAA IC50 (µM) 24h
[7] = Plasmodium falciparum, P. falciparum female gametocytes, mean, read-out: Gametocytes mean Pf FGAA IC50
[8] = 24h incubation time, read-out: Pf FGAA IC50 (µM) 24h
[9] = P. falciparum female gametocytes, mean, read-out: Gametocytes mean Pf FGAA IC50

SMILES | IC50 [1, 6] [µM] | IC50 [1, 7] [µM] | Pf FGAA classification [1] | IC50 ([2]; Plasmodium falciparum) [µM] | inhibition at 2 µM [3] [%] | Selectivity ratio [4] | HepG2 cells mean TOX50 ([4]; HepG2 cells, mean) [µM] | IC50 [5] [nM] | Pf Asexual stages XC50 [5] [nM] | IC50 [1, 8] [µM] | IC50 [1, 9] [µM] | IC50 [2] [µM] | Gametocytes mean ATP inhibition at 2µM [3] [%] | HepG2 cells TOX50 ([4]; HepG2 cells) [µM] | HepG2 cells mean TOX50 ([4]; human, 48 h) [µM]
Clc1cc(Br)ccc1-c1ccc(CNCC2CCNCC2)o1 [TCMDC-124617] | > 20 | 0.72 | SLOW | > 20 | -8.62 | 6.08 | 4.37 | 1510 | 1510 |  |  |  |  |  | 
CN1CCC(N2CCC(Oc3cccc(C(=O)NCCCC4CCCC4)c3)CC2)CC1 [TCMDC-124677] | 3.87 | 1.47 | SLOW | > 20 | -0.79 | 3.34 | 4.90 | 840 | 230 |  |  |  |  |  | 
Cc1ccc2c(c1)c(C1CCN(C(=O)c3ccc([N+](=O)[O-])o3)CC1)cn2C [TCMDC-124787] |  |  | FAST |  |  |  | 28.85 | 750 | 750 | 0.88 | 2.12 | > 20 | -6.61 |  | 
C=CCc1cccc(CN2CCC(c3cc(O)nc(-c4ccccn4)n3)CC2)c1O [TCMDC-124851] | 0.71 | 1.74 | FAST | 2.42 | 17.9 | 6.59 | 11.49 | 1100 | 1000 |  |  |  |  |  | 
CCCc1cc(=O)[nH]c(-n2nc(C)cc2NC(=O)CC(c2ccccc2)c2ccccc2)n1 [TCMDC-124940] |  |  | FAST |  |  |  | >100 | 620 | 510 | 0.41 | 1.3 | > 20 | 0.055 | >100 | 
COc1ccc(NC(=O)Nc2ccc(Nc3nc(C)cc(N4CCCC4)n3)cc2)cc1 [TCMDC-124958] | 2.16 | 1.08 | FAST | 10.1 | -9.01 | 11.05 | 11.89 | 140 | 140 |  |  |  |  |  | 
O=C(c1ccc([N+](=O)[O-])o1)N1CCN(c2nc3c(F)cc(F)cc3s2)CC1 [TCMDC-125149] |  |  | FAST |  |  |  | >100 | 970 | 970 | 1.25 | 1.31 | > 20 | 5.52 | >100 | 
CNCCCNCc1ccc(-c2ccc(F)c(Cl)c2)o1.Cl [TCMDC-125237] |  |  | FAST |  |  |  | 10.60 | 750 | 750 | 1.57 | 1.87 | > 20 | -1.51 |  | 
Cc1ccc(-n2c(Sc3ncnc4sccc34)nnc2N2CCCC2)cc1 [TCMDC-125247] |  |  | SLOW |  |  |  | 89.13 | 260 | 260 | > 20 | 0.49 | > 20 | 22.13 |  | 
O=C(Nc1nc(-c2ccccn2)cs1)c1ccc(S(=O)(=O)N2CCc3ccccc32)cc1 [TCMDC-125432] |  |  | FAST |  |  |  | 29.22 | 830 | 830 | 0.7 | 1.07 | > 20 | -8.57 |  | 
CCN(CCNS(C)(=O)=O)c1ccc(N)c(C)c1.O.O=S(=O)(O)O [TCMDC-125836] |  |  | FAST |  |  |  | 26.14 | 880 | 880 | 0.3 | 1.14 | 3.56 | 7.23 |  | 
C[C@H](Cc1ccc(OCCCCCCOc2ccc(C[C@@H](C)N[C@H](C)c3ccccc3)cc2)cc1)NC[C@H](O)c1cccc(Cl)c1.Cl [TCMDC-131564] |  |  | SLOW |  |  |  | 4.28 | 240 | 240 | 2.89 | 0.72 | > 20 | 38.50 |  | 
N#Cc1c(F)cc(N2CCC(NCC[C@H](N)Cc3ccc(F)c(F)c3)CC2)cc1F [TCMDC-132121] | 7.16 | 0.73 | SLOW | 7.08 | 7.46 | 6.30 |  | 860 | 860 |  |  |  |  |  | 4.58
O=C(O)C(F)(F)F.O=S(=O)(NCCN1CCCC1)c1ccc(-c2cccc(CNC3Cc4ccccc4C3)c2)s1 [TCMDC-132217] |  |  | SLOW |  |  |  | 5.50 | 750 | 750 | 5.37 | 1.29 | > 20 | 18.03 |  | 
CN1CCC(NCc2cccc(-c3ccc(S(=O)(=O)NCc4ccccc4)c(F)c3)c2)CC1.O=C(O)C(F)(F)F [TCMDC-132219] |  |  | SLOW |  |  |  | 5.13 | 320 | 320 | 12.2 | 2.63 | > 20 | -1.59 |  | 
Cc1cccc2nc(-c3ccc(-c4ccc(CNCc5ccc(CN)cc5)cc4)s3)[nH]c12.O=C(O)C(F)(F)F [TCMDC-132809] |  |  | FAST |  |  |  | 14.79 | 440 | 440 | 1.17 | 0.47 | 5.14 | 36.48 |  | 
Cc1cccc2nc(-c3ccc(-c4ccc(CNCc5ccc(CN)cc5)cc4)cc3)[nH]c12.O=C(O)C(F)(F)F [TCMDC-132813] |  |  | FAST |  |  |  | 18.09 | 720 | 720 | 0.21 | 2.16 | 4.35 | 13.49 |  | 
FC(F)(F)c1ccc2[nH]c(-c3ccc(-c4ccc(CNCCN5CCNCC5)cc4)cc3)nc2c1.O=C(O)C(F)(F)F [TCMDC-132865] |  |  | SLOW |  |  |  | 16.43 | 1120 | 1120 | > 20 | 1.41 | > 20 | -10.30 |  | 
Cc1cccc2nc(-c3ccc(-c4ccc(CNCCN5CCNCC5)cc4)s3)[nH]c12.O=C(O)C(F)(F)F [TCMDC-132870] |  |  | SLOW |  |  |  | 14.29 | 1150 | 1150 | 18.8 | 1.53 | > 20 | 8.76 |  | 
NC1CCN(CCc2ccc(NS(=O)(=O)c3ccc(-c4ccccc4)cc3)cc2)CC1 [TCMDC-134085] | 1.98 | 0.75 | FAST | > 20 | -6.2 | 9.58 | 7.17 | 1020 | 1020 |  |  |  |  |  | 
Cc1ccc(C(C(=O)Nc2ccc(N3CCNCC3)c(Cl)c2)c2ccccc2)cc1 (stereo not drawn) [TCMDC-134292] |  |  | SLOW |  |  |  | 11.89 | 840 | 840 | 17 | 0.66 | > 20 | 19.42 |  | 
COc1cccc(-c2csc(C(=O)NCC3CCN(Cc4ccc(C(C)C)cc4)C3)c2)c1.O=C(O)C(F)(F)F (stereo not drawn) [TCMDC-134439] |  |  | SLOW |  |  |  | 11.51 | 1390 | 1390 | 3.22 | 1.37 | > 20 | 2.89 |  | 
O=C(NCC1CCN(Cc2cccc(C(F)(F)F)c2)C1)c1cc(-c2cccc(C(F)(F)F)c2)cs1.O=C(O)C(F)(F)F (stereo not drawn) [TCMDC-134483] |  |  | SLOW |  |  |  | 16.22 | 610 | 610 | 2.45 | 1.65 | > 20 | -4.13 |  | 
